The values that follow come from PubChem BioAssay AID1259408 (Genetic Toxicology Data Bank (GENE-TOX), 2018).

Activity calls are given as the source filed them. The rule behind the calls is not given here.

For this data set, the system named is GENE-TOX genotoxicity assays, various organisms and cells. The experiment in a line: GENE-TOX mutagenicity studies. The settings on record: for call: Assay Type: In vivo carcinogenicity studies. An excerpt:
GENE-TOX provides genetic toxicology (mutagenicity) test data from expert peer review of open scientific literature for more than 3,000 chemicals from the United States Environmental Protection Agency (EPA). GENE-TOX was established to select assay systems for evaluation, review data in the scientific literature, and recommend proper testing protocols and evaluation procedures for these systems.
GENE-TOX covers the years 1991 - 1998. It is no longer updated.
This is an archive assay for GENE-TOX mutagenicity studies.

Setting [1] is: Species/Cell Type: Salmonella typhimurium (one or more of the five standard strains: TA98, TA100, TA1535, TA1537, and TA1538), Assay Type: Histidine reverse gene mutation, Ames assay, Assay Code: SALT, Evaluation Type: Evaluation A (Pre-1980).
Where [2] appears, read: Species/Cell Type: Salmonella typhimurium (one or more of the five standard strains: TA98, TA100, TA1535, TA1537, and TA1538), Assay Type: Histidine reverse gene mutation, Ames assay, Assay Code: SAL+, Evaluation Type: Evaluation A (Pre-1980).
Where [3] appears, read: Species/Cell Type: Salmonella typhimurium (one or more of the five standard strains: TA98, TA100, TA1535, TA1537, and TA1538), Assay Type: Histidine reverse gene mutation, Ames assay, Assay Code: SAL+*, Activation: With metabolic activation, Evaluation Type: Evaluation A (Pre-1980).
[4] abbreviates: Species/Cell Type: Nonhuman, Assay Code: CCG+, Evaluation Type: Evaluation A (Pre-1980).
The mark [5] stands for this setting: Species/Cell Type: Nonhuman, Assay Type: Sister-chromatid exchange (SCE) in vitro, Assay Code: SC2+D, Dose Response: With dose response, Evaluation Type: Evaluation B (Post-1980).
[6] abbreviates: Species/Cell Type: Nonhuman, Assay Code: CCGT, Evaluation Type: Evaluation A (Pre-1980).
[7] abbreviates: Species/Cell Type: Mammalian polychromatic erythrocytes, Assay Type: Micronucleus test, chromosome aberrations, Assay Code: MNTT, Evaluation Type: Evaluation A (Pre-1980).
The mark [8] stands for this setting: Species/Cell Type: Mouse, Sex: Male, Assay Type: Sperm morphology, Assay Code: SPI-, Evaluation Type: Evaluation A (Pre-1980).
Setting [9] is: Species/Cell Type: Rodents, Sex: Male, Assay Type: Dominant lethal test, Assay Code: DLT-, Evaluation Type: Evaluation A (Pre-1980).
The mark [10] stands for this setting: Species/Cell Type: Bacillus subtilis (H17 vs M45), Assay Type: Rec-assay, spot test, DNA effects (bacterial DNA repair), Assay Code: REW-, Evaluation Type: Evaluation A (Pre-1980).
[11] abbreviates: Species/Cell Type: Syrian hamster embryo (SA7/SHE) cells, Assay Type: Cell transformation, viral enhanced, Assay Code: CT7+, Evaluation Type: Evaluation A (Pre-1980).

For `CC(C)C[C@@H](N)[C@H](O)C(=O)N[C@H](C(=O)N[C@H](C(=O)N[C@@H](CC(=O)O)C(=O)O)C(C)C)C(C)C`, the mutagenic call (Species/Cell Type: Human, Assay Type: Sister-chromatid exchange (SCE) in vitro, Assay Code: SC1T, Evaluation Type: Evaluation B (Post-1980)) is listed as “no conclusion”.
Consider `CCCCOc1ccc2nc3cc(Cl)ccc3c(NCCCNCCCl)c2n1`, for which the mutagenic call (Species/Cell Type: Chinese hamster ovary (CHO) cells, Assay Type: Forward gene mutation at the HPRT locus, Assay Code: CHO+, Evaluation Type: Evaluation B (Post-1980)) is “active; positive”.
For the compound `Oc1ccc2c3c(cccc13)CC2`, the mutagenic call under setting [1] is on record as “no conclusion”.
For the compound `OC1C2OC2=C2C=c3ccc4cccc5ccc(c3c54)C2C1O` (stereo not given), the mutagenic call (Species/Cell Type: Chinese hamster lung (V79) cells, Assay Type: Forward gene mutation at the HPRT or ouabain locus, Assay Code: V79+, Evaluation Type: Evaluation A (Pre-1980)) was “active; positive”.
Consider `Cc1cc2ccc(F)cc2c2ccc3ccccc3c12`, for which, under setting [1], the mutagenic call is reported as “no conclusion”.
On to `O=[N+]([O-])c1cccc2cn[nH]c12`, for which the mutagenic call under setting [2] was “active; positive”.
Consider `Cc1cc(O)c2c(c1)C(=O)c1cc(OC3O[C@@H](C)[C@H](O)[C@@H](O)[C@H]3O)cc(O)c1C2=O` (stereo not given in full), for which the mutagenic call under setting [3] was “active; positive”.
Regarding `O[C@@H]1[C@H]2O[C@H]2c2cc3ccc4cccc5ccc(c2[C@H]1O)c3c45`, under setting [2], the mutagenic call is “active; positive”.
As to `O=C(O)CS`, where the note is “Species/Cell Type: Mammalian polychromatic erythrocytes, Assay Type: Micronucleus test, chromosome aberrations, Assay Code: MNTT, Evaluation Type: Evaluation B (Post-1980)”, the mutagenic call was “no conclusion”.
Turning to `c1ccc(N=Nc2ccccc2)cc1`, the call under setting [4] is “active; positive”. Besides, the mutagenic call by setting is: under setting [5], “active; positive”; under setting [3], “active; positive”.
Turning to `Cc1ccc2c(ccc3cc4ccccc4cc32)c1`, the mutagenic call (Species/Cell Type: Nonhuman, Assay Type: Sister-chromatid exchange (SCE) in vitro, Assay Code: SC2-, Evaluation Type: Evaluation B (Post-1980)) was “inactive; negative” and the mutagenic call under setting [3] was “active; positive”.
Consider `CCCCN(CCC(C)=O)N=O`, for which, under setting [3], the mutagenic call was “active; positive”.
On to `Clc1ccccc1Cl`, for which the mutagenic call (Species/Cell Type: Mammalian polychromatic erythrocytes, Assay Type: Micronucleus test, chromosome aberrations, Assay Code: MNT+, Evaluation Type: Evaluation B (Post-1980)) is “active; positive”.
Turning to `Cc1c2c(c(C)c3c1ccc1ccccc13)[C@H](O)[C@@H](O)C=C2`, the call under setting [6] is on record as “no conclusion”.
As for `C=CCC1=C(C)C(OC(=O)[C@@H]2[C@@H](C=C(C)C)C2(C)C)CC1=O` (stereo not given in full), the mutagenic call was “inactive; negative” (Species/Cell Type: Human diploid fibroblasts, Assay Type: Unscheduled DNA synthesis (UDS) in vitro, DNA effects, Assay Code: UDH-, Evaluation Type: Evaluation A (Pre-1980)) and “inactive; negative” (Species/Cell Type: Saccharomyces cerevisiae, Assay Type: Mitotic recombination or gene conversion, Assay Code: YEH-, Evaluation Type: Evaluation A (Pre-1980)).
As to `CC[N+]([O-])(CC)CCNc1ccc(C)c2sc3ccccc3c(=O)c12`, the mutagenic call under setting [1] was “no conclusion”.
Take `CN1CCC(=C2c3ccccc3C=Cc3ccccc32)CC1`: the mutagenic call under setting [1] is reported as “no conclusion”.
Take `NOS(=O)(=O)O`: for the setting “Species/Cell Type: Escherichia coli polA (W3119 vs P3478), Assay Type: Rec-assay, DNA effects (bacterial DNA repair), Assay Code: RE1+, Evaluation Type: Evaluation A (Pre-1980)”, the mutagenic call is “active; positive”.
As to `CN[C@H]1C[C@H](O[C@H]2C[C@](O)(C(C)=O)Cc3c(O)c4c(c(O)c32)C(=O)c2c(OC)cccc2C4=O)O[C@@H](C)[C@H]1O`, the mutagenic call under setting [3] is “active; positive”.
Turning to `COC1=C2C[C@@H](C)C[C@H](OC)[C@H](O)[C@@H](C)/C=C(\C)[C@H](OC(N)=O)[C@@H](OC)/C=C\C=C(/C)C(=O)NC(=CC1=O)C2=O`, where the note is “Species/Cell Type: Fischer rat embryo (RLV/1706) cells, Assay Type: Cell transformation, viral enhanced, Assay Code: CTR-, Evaluation Type: Evaluation A (Pre-1980)”, the mutagenic call was “inactive; negative”.
Regarding `O=S(=O)(O)NC1CCCCC1`, the mutagenic call reads like this: (Species/Cell Type: Drosophila melanogaster, Assay Type: Aneuploidy, sex chromosome gain, chromosome aberrations, Assay Code: DAG-F, Evaluation Type: Evaluation A (Pre-1980)) “inactive; negative”; (Species/Cell Type: Drosophila melanogaster, Assay Type: Aneuploidy, whole sex chromosome loss, chromosome aberrations, Assay Code: DAC-F, Evaluation Type: Evaluation A (Pre-1980)) “inactive; negative”; (Species/Cell Type: Drosophila melanogaster, Assay Type: Sex-linked recessive lethal gene mutation, Assay Code: SRLT, Evaluation Type: Evaluation A (Pre-1980)) “no conclusion”; (Species/Cell Type: Mammalian germ cells, Sex: Male, Assay Type: Chromosome aberrations in vivo, Assay Code: CY9T, Evaluation Type: Evaluation A (Pre-1980)) “no conclusion”; under setting [7], “no conclusion”; under setting [8], “inactive; negative”. Besides, the mutagenic call reads like this: (Species/Cell Type: Nonhuman bone marrow, Assay Type: Chromosome aberrations, in vivo, Assay Code: CY#T, Evaluation Type: Evaluation A (Pre-1980)) “no conclusion”; (Species/Cell Type: Rodents, Sex: Female, Assay Type: Dominant lethal test, Assay Code: DLTF-, Evaluation Type: Evaluation A (Pre-1980)) “inactive; negative”; under setting [9], “inactive; negative”; (Species/Cell Type: Salmonella typhimurium, Serratia marcesens, Assay Type: Forward and reverse gene mutation, host-mediated assay, Assay Code: HM2-, Evaluation Type: Evaluation A (Pre-1980)) “inactive; negative”.
With `Cn1c([N+](=O)[O-])cnc1COC(N)=O`, the mutagenic call is “no conclusion” under setting [7], “inactive; negative” under setting [9] and “active; positive” under setting [2].
On to `COC(=O)CCN1CC1`, for which the mutagenic call (Species/Cell Type: Schizosaccharomyces pombe, Assay Type: Reverse gene mutation, Assay Code: YEZ+, Evaluation Type: Evaluation A (Pre-1980)) was “active; positive”.
For `O=c1[nH]c(=O)n([C@H]2C[C@H](O)[C@@H](CO)O2)cc1/C=C/Cl`, the mutagenic call (Species/Cell Type: Human, Assay Type: Sister-chromatid exchange (SCE) in vitro, Assay Code: SC1+D, Dose Response: With dose response, Evaluation Type: Evaluation B (Post-1980)) is “active; positive”.
For `[Cl][Fe][Cl]`, the mutagenic call is, setting by setting: under setting [10], “inactive; negative”; under setting [11], “active; positive”.
Take `CCCOC(=O)c1ccc(O)cc1`: the mutagenic call (Species/Cell Type: Salmonella typhimurium (one or more of the five standard strains: TA98, TA100, TA1535, TA1537, and TA1538), Assay Type: Histidine reverse gene mutation, Ames assay, Assay Code: SAL-, Evaluation Type: Evaluation A (Pre-1980)) is “inactive; negative”.
In the case of `CCSCCC(N)C(=O)O` (stereo not given), the mutagenic call reads like this: (Species/Cell Type: Neurospora crassa, Assay Type: Aneuploidy, chromosome aberrations, Assay Code: NEN-, Evaluation Type: Evaluation A (Pre-1980)) “inactive; negative”; (Species/Cell Type: Nonhuman, Assay Type: Sister-chromatid exchange (SCE) in vitro, Assay Code: SC2+, Evaluation Type: Evaluation B (Post-1980)) “active; positive”. The call under setting [4] is “active; positive”.
`O=c1c2ccc3cccc4c(=O)cc(c5ccccc15)-c2c34`: the mutagenic call is, setting by setting: (Species/Cell Type: Chinese hamster lung (V79) cells, Assay Type: Forward gene mutation at the HPRT or ouabain locus, Assay Code: V79-, Evaluation Type: Evaluation A (Pre-1980)) “inactive; negative”; under setting [1], “no conclusion”. Under setting [6], the call is recorded as “no conclusion”.
`Oc1cc(Cl)c(-c2cc(Cl)ccc2Cl)cc1Cl`: the mutagenic call under setting [1] is reported as “no conclusion”.
`O=NN1CCCC(O)C1` (stereo not given): the mutagenic call under setting [3] was “active; positive”.
Turning to `COP(=O)(Oc1cc(Cl)c(Br)cc1Cl)c1ccccc1` (stereo not given), the mutagenic call under setting [5] is “active; positive”.
With `[Cl][Zn][Cl]`, the mutagenic call runs as follows: under setting [10], “inactive; negative”; (Species/Cell Type: Human lymphocytes or leukocytes, Assay Type: Chromosome aberrations in vitro, Assay Code: CY7-, Evaluation Type: Evaluation A (Pre-1980)) “inactive; negative”; under setting [8], “inactive; negative”; under setting [2], “active; positive”; (Species/Cell Type: Salmonella typhimurium, Assay Type: Forward and reverse gene mutation, host-mediated assay, Assay Code: HMA+, Evaluation Type: Evaluation A (Pre-1980)) “active; positive”; under setting [11], “active; positive”.
Consider `CC1=CC(=C(c2ccc(N)c(S(=O)(=O)O)c2)c2ccc(N)c(S(=O)(=O)O)c2)C=C(S(=O)(=O)O)C1=N`, for which the mutagenic call (Species/Cell Type: Bacillus subtilis (H17 vs M45), Assay Type: Rec-assay, spot test, DNA effects (bacterial DNA repair), Assay Code: REWT, Evaluation Type: Evaluation A (Pre-1980)) is listed as “no conclusion”.
In the case of `ClCc1c2ccccc2c(CCl)c2ccccc12`, the mutagenic call under setting [2] is “active; positive”.
Turning to `O=[N+]([O-])c1ccc(N2CCN(c3ccccc3)CC2)c2c1no[n+]2[O-]`, the mutagenic call under setting [2] is “active; positive”.
